{"source": "paper PMC9851200", "about": "“Multiparameter phenotypic screening for endogenous TFEB and TFE3 translocation identifies novel chemical series modulating lysosome function” (Autophagy, 2022)", "key": {"[1]": {"target": "T1, kinases (KINOMEscan panel) (Homo sapiens, UniProt O76039)", "T1 sequence (O76039 1-960)": "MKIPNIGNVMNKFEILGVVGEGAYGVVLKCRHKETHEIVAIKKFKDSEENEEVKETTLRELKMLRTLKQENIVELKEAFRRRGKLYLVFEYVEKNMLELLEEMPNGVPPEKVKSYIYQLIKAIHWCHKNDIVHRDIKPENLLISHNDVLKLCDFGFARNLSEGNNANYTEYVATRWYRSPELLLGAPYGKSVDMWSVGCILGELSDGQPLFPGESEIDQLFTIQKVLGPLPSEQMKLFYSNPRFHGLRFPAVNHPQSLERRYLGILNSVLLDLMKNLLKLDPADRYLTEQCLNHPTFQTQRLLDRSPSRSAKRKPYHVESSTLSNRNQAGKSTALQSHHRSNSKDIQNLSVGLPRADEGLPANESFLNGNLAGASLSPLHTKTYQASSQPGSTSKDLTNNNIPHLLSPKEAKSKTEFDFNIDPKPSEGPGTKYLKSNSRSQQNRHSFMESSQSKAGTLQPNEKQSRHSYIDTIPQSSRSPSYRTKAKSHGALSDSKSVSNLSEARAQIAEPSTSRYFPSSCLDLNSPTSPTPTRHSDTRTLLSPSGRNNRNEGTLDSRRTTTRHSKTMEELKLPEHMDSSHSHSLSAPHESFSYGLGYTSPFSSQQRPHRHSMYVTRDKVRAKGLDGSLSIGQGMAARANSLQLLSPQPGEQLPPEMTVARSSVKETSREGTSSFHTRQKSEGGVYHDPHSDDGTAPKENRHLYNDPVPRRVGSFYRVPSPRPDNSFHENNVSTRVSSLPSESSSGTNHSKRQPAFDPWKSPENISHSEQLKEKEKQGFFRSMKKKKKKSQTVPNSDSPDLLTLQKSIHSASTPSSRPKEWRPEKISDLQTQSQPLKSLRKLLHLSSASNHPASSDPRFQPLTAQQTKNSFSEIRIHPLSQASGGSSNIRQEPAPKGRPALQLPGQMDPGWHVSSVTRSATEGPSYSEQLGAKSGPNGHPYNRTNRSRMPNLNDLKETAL", "design": "method as in original PKIS2 published data", "conditions": "kinase CDKL5; Published KINOMEscan; ref original PKIS2 published data; cited from earlier work"}, "[2]": {"target": "kinases (KINOMEscan panel) (Homo sapiens, UniProt P04626)", "sequence (P04626 23-1255)": "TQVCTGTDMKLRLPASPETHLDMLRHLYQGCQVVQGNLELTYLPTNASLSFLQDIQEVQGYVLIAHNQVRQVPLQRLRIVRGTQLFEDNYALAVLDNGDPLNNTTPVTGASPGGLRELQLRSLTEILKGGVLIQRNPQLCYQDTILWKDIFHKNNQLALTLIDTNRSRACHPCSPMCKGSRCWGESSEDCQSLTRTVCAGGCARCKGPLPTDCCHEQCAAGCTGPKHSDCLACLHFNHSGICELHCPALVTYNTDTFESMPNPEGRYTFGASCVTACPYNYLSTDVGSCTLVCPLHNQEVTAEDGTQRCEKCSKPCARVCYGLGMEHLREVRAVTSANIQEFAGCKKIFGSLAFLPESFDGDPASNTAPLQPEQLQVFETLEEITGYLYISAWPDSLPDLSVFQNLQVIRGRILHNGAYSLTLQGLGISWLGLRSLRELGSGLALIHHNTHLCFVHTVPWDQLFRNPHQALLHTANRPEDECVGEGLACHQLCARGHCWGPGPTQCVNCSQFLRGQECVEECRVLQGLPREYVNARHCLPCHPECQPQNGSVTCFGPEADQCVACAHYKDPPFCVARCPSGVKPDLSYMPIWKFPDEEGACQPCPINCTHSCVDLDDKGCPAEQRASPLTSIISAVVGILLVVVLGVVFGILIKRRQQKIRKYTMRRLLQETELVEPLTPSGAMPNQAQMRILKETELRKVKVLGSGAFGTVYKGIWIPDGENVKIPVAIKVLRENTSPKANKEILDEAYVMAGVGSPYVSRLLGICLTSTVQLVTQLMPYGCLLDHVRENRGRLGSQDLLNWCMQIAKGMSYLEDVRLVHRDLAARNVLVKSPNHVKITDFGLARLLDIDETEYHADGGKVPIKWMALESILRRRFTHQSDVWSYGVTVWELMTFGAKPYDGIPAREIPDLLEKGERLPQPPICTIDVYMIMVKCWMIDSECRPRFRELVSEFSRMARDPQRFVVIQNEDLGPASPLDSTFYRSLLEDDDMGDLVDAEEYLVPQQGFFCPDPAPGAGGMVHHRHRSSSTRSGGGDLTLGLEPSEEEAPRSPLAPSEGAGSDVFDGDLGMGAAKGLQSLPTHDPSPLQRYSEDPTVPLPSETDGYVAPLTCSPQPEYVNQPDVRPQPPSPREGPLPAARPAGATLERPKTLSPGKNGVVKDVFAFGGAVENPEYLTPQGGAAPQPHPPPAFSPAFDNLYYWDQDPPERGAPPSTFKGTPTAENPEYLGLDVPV", "design": "method as in original PKIS2 published data", "conditions": "kinase ERBB2; Published KINOMEscan; ref original PKIS2 published data; cited from earlier work"}, "[3]": {"target": "T2, kinases (KINOMEscan panel) (Homo sapiens, UniProt Q13237)", "T2 sequence (Q13237 1-762)": "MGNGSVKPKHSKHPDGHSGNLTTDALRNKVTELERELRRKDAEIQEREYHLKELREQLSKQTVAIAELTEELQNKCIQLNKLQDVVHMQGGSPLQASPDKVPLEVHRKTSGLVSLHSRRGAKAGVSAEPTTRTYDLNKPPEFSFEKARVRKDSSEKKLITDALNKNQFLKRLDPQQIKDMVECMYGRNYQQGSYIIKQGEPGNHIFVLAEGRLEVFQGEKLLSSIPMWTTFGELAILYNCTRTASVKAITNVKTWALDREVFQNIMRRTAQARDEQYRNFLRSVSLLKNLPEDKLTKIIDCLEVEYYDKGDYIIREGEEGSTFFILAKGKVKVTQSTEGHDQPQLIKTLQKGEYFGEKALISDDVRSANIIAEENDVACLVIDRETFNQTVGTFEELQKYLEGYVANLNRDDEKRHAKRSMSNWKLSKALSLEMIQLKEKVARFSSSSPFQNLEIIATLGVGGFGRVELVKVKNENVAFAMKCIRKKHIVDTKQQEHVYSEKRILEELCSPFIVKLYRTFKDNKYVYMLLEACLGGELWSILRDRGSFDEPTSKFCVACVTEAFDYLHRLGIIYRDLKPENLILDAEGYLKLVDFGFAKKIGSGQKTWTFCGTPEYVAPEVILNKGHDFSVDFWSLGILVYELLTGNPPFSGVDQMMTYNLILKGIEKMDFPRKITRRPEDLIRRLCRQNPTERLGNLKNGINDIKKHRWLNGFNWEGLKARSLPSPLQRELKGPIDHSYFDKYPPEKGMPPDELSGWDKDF", "design": "method as in original PKIS2 published data", "conditions": "PRKG2; Published KINOMEscan; ref original PKIS2 published data; cited from earlier work"}, "[4]": {"target": "kinases (KINOMEscan panel) (Homo sapiens, UniProt Q13464)", "sequence (Q13464 whole entry)": "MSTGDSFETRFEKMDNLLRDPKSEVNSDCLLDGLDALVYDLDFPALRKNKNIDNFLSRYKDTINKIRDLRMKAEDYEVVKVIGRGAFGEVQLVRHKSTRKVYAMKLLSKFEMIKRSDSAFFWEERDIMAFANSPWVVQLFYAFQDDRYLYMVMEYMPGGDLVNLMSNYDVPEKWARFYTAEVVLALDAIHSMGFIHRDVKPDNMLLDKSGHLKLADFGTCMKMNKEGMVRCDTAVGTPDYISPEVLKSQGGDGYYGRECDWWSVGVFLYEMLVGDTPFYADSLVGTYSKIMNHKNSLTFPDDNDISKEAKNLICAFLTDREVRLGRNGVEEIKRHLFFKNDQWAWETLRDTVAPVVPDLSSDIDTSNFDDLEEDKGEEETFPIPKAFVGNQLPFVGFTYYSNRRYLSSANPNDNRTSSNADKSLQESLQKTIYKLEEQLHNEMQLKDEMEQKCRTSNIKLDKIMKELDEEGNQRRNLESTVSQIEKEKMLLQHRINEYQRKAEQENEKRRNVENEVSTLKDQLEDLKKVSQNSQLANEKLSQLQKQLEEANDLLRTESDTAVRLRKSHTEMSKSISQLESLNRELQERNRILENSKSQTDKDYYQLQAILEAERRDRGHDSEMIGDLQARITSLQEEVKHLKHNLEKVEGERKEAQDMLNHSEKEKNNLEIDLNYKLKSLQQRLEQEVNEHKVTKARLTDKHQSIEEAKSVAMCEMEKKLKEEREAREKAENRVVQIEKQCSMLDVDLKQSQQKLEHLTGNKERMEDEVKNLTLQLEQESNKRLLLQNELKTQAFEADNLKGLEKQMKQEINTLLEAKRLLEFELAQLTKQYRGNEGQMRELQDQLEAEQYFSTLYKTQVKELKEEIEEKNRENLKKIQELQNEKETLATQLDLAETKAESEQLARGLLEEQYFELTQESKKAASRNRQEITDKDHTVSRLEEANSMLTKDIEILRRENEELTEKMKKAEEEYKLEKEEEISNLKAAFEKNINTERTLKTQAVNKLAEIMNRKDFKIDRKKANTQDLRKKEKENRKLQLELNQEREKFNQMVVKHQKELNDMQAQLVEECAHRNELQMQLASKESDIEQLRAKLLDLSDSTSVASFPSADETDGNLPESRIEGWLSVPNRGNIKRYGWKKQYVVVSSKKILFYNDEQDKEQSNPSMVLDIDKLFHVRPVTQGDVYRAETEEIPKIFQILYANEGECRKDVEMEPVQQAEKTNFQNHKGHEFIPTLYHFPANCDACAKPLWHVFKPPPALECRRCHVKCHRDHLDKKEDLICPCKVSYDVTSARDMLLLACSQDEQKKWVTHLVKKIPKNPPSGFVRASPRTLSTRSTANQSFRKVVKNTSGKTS", "design": "method as in original PKIS2 published data", "conditions": "ROCK1; Published KINOMEscan; ref original PKIS2 published data; cited from earlier work"}, "PRKD1": {"target": "T3, PRKD1 (Homo sapiens, UniProt Q15139)", "T3 sequence (Q15139 1-912)": "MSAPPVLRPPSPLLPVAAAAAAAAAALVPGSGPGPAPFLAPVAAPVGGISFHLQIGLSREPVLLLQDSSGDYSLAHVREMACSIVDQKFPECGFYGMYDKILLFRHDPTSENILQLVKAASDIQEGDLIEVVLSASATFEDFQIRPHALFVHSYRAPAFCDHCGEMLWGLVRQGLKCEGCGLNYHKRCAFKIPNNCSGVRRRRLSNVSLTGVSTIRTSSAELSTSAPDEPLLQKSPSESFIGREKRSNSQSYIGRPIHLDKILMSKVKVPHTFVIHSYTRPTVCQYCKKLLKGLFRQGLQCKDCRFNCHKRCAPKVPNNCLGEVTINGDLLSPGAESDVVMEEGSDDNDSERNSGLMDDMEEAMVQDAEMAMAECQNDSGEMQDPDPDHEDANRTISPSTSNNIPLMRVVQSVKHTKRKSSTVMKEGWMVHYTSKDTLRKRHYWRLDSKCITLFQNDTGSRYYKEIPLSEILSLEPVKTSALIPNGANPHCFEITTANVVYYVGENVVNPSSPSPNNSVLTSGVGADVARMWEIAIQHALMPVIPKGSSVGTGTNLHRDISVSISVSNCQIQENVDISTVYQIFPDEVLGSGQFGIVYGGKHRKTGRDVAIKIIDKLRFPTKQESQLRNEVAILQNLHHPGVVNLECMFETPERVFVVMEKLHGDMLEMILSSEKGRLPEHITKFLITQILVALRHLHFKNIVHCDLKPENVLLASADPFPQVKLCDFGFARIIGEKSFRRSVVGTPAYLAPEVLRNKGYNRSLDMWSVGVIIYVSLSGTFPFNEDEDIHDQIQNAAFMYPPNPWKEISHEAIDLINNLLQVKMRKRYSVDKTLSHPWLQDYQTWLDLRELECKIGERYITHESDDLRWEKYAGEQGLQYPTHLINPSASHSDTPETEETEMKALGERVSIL", "experiment": "PRKD1 binding KD (Table S3)", "conditions": "relation sign", "excerpt": "Supplement KAUP_A_2095834_SM5251.zip/Supplementary Tables R7.xlsx, sheet \"Table S3 - Analogues\""}}, "data": [{"smiles": "Cc1cccc(-c2nc(Nc3ccncc3)c3ccccc3n2)n1", "note": "[NK215]", "values": [{"measurement": "KINOMEscan CDKL5", "setting": "[1]", "result": 0}, {"measurement": "KINOMEscan ERBB2", "setting": "[2]", "result": 7}, {"measurement": "KINOMEscan PRKG2", "setting": "[3]", "result": 0}, {"measurement": "KINOMEscan ROCK1", "setting": "[4]", "result": 0}, {"measurement": "Kd", "setting": "PRKD1", "result": 13, "unit": "nM"}]}]}
